From patent EP1200099B1, “SYNERGISTIC COMPOSITION COMPRISING DAUNORUBICIN DERIVATIVES AND ANTI[…]” (Pharmacia Italia S.p.A., priority 1999, dated 2001)

System: disseminated L1210 murine leukemia
Experiment: Antileukemic activity on disseminated L1210 murine leukemia (in vivo survival)
Design: species or system mouse CD2F1
Details: for toxicity (in words): single agents: gemcitabine 15 and 60 mg/kg ip day 1, PNU 159548 1 and 1.5 mg/kg iv day 1
Source text: The superadditive actions of the combination preparation of the present invention may be shown for instance by in vivo tests for the antileukemic activity on disseminated L1210 murine leukemia. The combination of Ia with gemcitabine (Table 1) or 5-Fluorouracil tested at the different doses and schedules, produces favorable ILS% values (Increase in life span: [(median survival time of treated mice/median survival time of controls)x 100]-100), indicating a synergistic effect.
By combining gemcitabine and PNU 159548 at the same doses and with the same schedule, an increase of activity with ILS% values of 117 and 204 were observed, indicating a synergistic effect as shown by the combination index (CI) of […], respectively.
For these experiments Ia was solubilized in [Cremophor® /EtOH = 6.5:3.5]/[normal saline]=20/80 v/v, while standard pharmaceutical preparation were used for the antimetabolite compounds.

[1] = PNU 159548 alone, iv day +1, 1 mg/kg/day
[2] = PNU 159548 alone, iv day +1, 1.5 mg/kg/day
[3] = gemcitabine alone, ip day +1, 15 mg/kg/day
[4] = gemcitabine alone, ip day +1, 60 mg/kg/day

SMILES: CC(=O)[C@]1(O)Cc2c(O)c3c(c(O)c2[C@@H](O[C@H]2C[C@H](N4CC4)[C@H](OS(C)(=O)=O)[C@H](C)O2)C1)C(=O)c1ccccc1C3=O [PNU 159548, 4-demethoxy-3'-deamino-3'-aziridinyl-4'-methansulfonyl daunorubicin]
- LTS: long-term survivors (>60 days) at the end of the experiments [1]: 0/10
- TOX: Number of toxic deaths/number of mice [1]: 0/10
- ILS% (PNU 159548 alone, iv day +1, 1 mg/kg/day, L1210 cells 10^5/mouse IV on Day 0): 33%
- ILS% [2]: 67%
- LTS: long-term survivors (>60 days) at the end of the experiments [2]: 0/20
- TOX: Number of toxic deaths/number of mice [2]: 0/20
- toxicity (in words): without toxicity

SMILES: Nc1ccn([C@@H]2O[C@H](CO)[C@@H](O)C2(F)F)c(=O)n1 [Gemcitabine, gemcitabine]
- ILS% [3]: 50%
- LTS: long-term survivors (>60 days) at the end of the experiments [3]: 0/10
- TOX: Number of toxic deaths/number of mice [3]: 0/10
- ILS% [4]: 83%
- LTS: long-term survivors (>60 days) at the end of the experiments [4]: 0/20
- TOX: Number of toxic deaths/number of mice [4]: 0/20
- toxicity (in words): without toxicity
